Drawing on ChEMBL document CHEMBL3044725, “Structure-based molecular design, synthesis, and in vivo anti-inflammatory activity of pyridazinone derivatives as nonclassic COX-2 inhibitors” (2010), this text covers Activity for 7 molecules.

Holding throughout (assay type): functional
Holding throughout (settings): route subcutaneous

The test system of experiment [1] is Rattus norvegicus. Description: Anti-inflammatory activity in Rattus norvegicus albino (rat) assessed as reduction in carrageenan-induced paw volume at 5 mg/kg, sc pretreated 2 hr before carrageenan challenge measured after 1 hr by plethysmometer (reference value: 1.95 +/- 0.03 to 2 ml).
In experiment [2] the test system is Rattus norvegicus. The experiment is described as follows: Anti-inflammatory activity in Rattus norvegicus albino (rat) assessed as reduction in carrageenan-induced paw volume at 5 mg/kg, sc pretreated 1 hr before carrageenan challenge measured after 1 hr by plethysmometer (reference value: 1.95 +/- 0.03 to 2 ml). In general terms: In the carrageenan paw model, swelling and tenderness develop within hours.

Experiment [3] deals with Rattus norvegicus. The experiment is described as follows: Anti-inflammatory activity in Rattus norvegicus albino (rat) assessed as reduction in carrageenan-induced paw volume at 5 mg/kg, sc pretreated 4 hr before carrageenan challenge measured after 1 hr by plethysmometer (reference value: 1.95 +/- 0.03 to 2 ml).
The subject of experiment [4] is Rattus norvegicus. Description: Anti-inflammatory activity in Rattus norvegicus albino (rat) assessed as reduction in carrageenan-induced paw volume at 5 mg/kg, sc pretreated 3 hr before carrageenan challenge measured after 1 hr by plethysmometer (reference value: 1.95 +/- 0.03 to 2 ml).

With `O=c1ccc(C2Nc3ccccc3NC2c2ccccc2)n[nH]1` (stereo not drawn), the Activity was 2.02 mL in experiment [1], 2 mL in experiment [2], 2.07 mL in experiment [3] and 2 mL in experiment [4].

With `O=C(O)Cc1ccccc1Nc1c(Cl)cccc1Cl` [DICLOFENAC], the Activity in experiment [1] worked out at 0.57 mL; in experiment [2] it was 0.92 mL; in experiment [3] it was 0.03 mL; in experiment [4] it was 0.3 mL.

As to `COc1ccc(C2Nc3ccccc3NC2c2ccc(=O)[nH]n2)cc1` (stereo not drawn), the Activity is 1.42 mL in experiment [1], 1.58 mL in experiment [2], 1.32 mL in experiment [3] and 1.38 mL in experiment [4].

Turning to `O=c1ccc(C2Nc3ccccc3NC2c2ccc(Cl)cc2)n[nH]1` (stereo not drawn), the Activity in experiment [1] was 1.93 mL; in experiment [2] it was 1.93 mL; in experiment [3], 2.12 mL; in experiment [4], 2 mL.

`O=c1ccc(-c2nc3ccccc3nc2-c2ccccc2)n[nH]1`: the Activity in experiment [1] is 1.37 mL; in experiment [2] it was 1.97 mL; in experiment [3] it was 0.38 mL; in experiment [4] it was 1 mL.

Regarding `O=c1ccc(-c2nc3ccccc3nc2-c2ccc(Cl)cc2)n[nH]1`, the Activity in experiment [1] stood at 0.95 mL; in experiment [2], 1.48 mL; in experiment [3] it was 0.03 mL; in experiment [4], 0.55 mL.

Turning to `COc1ccc(-c2nc3ccccc3nc2-c2ccc(=O)[nH]n2)cc1`, the Activity in experiment [1] worked out at 1.5 mL; in experiment [2] it was 1.55 mL; in experiment [3], 1.27 mL; in experiment [4] it was 1.38 mL.
